According to patent US20220354862A1, “LIPOSOME DELIVERY OF PSYCHEDELICS” (Mind Medicine, Inc., priority 2021, published 2022):

Tests used:
[1] = Pharmacokinetic evaluation in rats after bolus IV administration (noribogaine in plasma); assay type: in vivo, Sprague Dawley rats
Procedure: Pharmacokinetic Evaluation of the Tissue Distribution of Two Test Articles (Noribogaine and BTLS (Brain-Targeted Liposomes)-Noribogaine) in Rats
This study was conducted in adult male Sprague Dawley rats, weighing 250-275 g on arrival. Animals were housed according to the vivarium SOP on a 12-hr light cycle with food and water ad libitum.
72 rats were divided into 12 groups of 6. Test articles were dosed at 10 mg/kg of active substance (generic and liposomal formulation) and administered IV through the tail vein as a bolus. Animals were sampled for 24 hours after administration. Terminal blood and tissue samples (brain, heart, kidney, liver) were collected at 0.08, 0.25, 1, 2, 4 and 8 hours after the dose. The study compared the two groups, noribogaine and BTLS-noribogaine formulation. Concentration of noribogaine in the plasma and tissues was measured ex vivo and pharmacokinetic analysis was performed.

[2] = target: hERG potassium channels (Homo sapiens, UniProt Q12809); details: high doses; cited from earlier work
[3] = system: heroin addict; details: oral, cited from earlier work

hERG potassium channels, sequence (Q12809 whole entry): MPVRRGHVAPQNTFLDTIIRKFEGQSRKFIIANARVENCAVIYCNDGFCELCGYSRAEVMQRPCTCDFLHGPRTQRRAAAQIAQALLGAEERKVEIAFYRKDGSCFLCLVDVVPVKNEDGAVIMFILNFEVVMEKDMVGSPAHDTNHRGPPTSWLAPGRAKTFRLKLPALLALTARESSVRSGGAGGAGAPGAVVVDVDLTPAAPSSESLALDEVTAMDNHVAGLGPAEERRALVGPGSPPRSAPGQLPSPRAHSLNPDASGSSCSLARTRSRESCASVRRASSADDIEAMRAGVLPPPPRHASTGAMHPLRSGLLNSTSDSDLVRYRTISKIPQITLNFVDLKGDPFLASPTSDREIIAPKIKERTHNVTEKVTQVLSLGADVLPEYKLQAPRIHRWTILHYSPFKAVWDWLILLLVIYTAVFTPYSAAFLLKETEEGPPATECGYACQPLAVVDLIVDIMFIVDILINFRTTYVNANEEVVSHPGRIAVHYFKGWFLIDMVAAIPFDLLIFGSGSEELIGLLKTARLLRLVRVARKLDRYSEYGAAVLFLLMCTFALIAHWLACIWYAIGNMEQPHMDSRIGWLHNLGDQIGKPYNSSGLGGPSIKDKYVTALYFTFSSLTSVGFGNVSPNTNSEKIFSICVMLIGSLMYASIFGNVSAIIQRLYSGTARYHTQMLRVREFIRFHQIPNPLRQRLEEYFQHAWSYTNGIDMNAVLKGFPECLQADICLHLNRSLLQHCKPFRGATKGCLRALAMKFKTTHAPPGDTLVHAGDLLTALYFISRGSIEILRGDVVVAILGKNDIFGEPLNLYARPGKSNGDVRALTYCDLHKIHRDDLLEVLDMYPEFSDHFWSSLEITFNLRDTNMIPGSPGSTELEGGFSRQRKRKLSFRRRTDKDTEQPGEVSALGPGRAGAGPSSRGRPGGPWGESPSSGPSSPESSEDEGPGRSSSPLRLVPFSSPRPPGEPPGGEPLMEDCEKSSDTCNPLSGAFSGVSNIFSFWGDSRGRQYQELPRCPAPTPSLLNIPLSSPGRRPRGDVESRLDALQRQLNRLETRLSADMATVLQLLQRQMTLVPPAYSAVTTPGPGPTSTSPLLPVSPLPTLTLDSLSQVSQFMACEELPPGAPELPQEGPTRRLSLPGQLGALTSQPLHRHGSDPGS

Molecule	Cl ([1]; rat)	Vss ([1]; rat)	Cmax ([1]; rat plasma)	T_half ([1]; rat plasma)	Tmax ([1]; rat plasma)	Cardiotoxicity: long QT syndrome / hERG block [2]	Treatments effective, share of cases ([3]; 6 mg/kg to 19 mg/kg)	Duration of effect of a series of 4 treatments ([3]; series of 4 treatments)	Duration of effect of a single treatment ([3]; single treatment)	minimum effective dose [3]
CC[C@H]1C[C@H]2C[C@H]3c4[nH]c5ccc(O)cc5c4CCN(C2)[C@@H]13 [NOR, noribogaine]	0.0064 mL/h	0.0119 mL	223.6 ng/mL	1.4558 h	30 min	cause long QT syndrome by blocking hERG potassium channels				
ibogaine							71%	approximately 3 years	about 6 months	400 mgs
